The source made the active and inactive calls.

The values that follow come from ChEMBL document CHEMBL1201862, “PubChem BioAssay data set” (2004).

In test [1] the target is E3 ubiquitin-protein ligase Mdm2 (Homo sapiens, UniProt Q00987). Description: MDM2-luc reporter signal enhancers, multi-concentration potency testing, MDM2 ubiquitin-protein ligase inhibitor program, whole-cell format, luminescence detection, 384-well microplate (AID 1394).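 Also: MDM2 E3 inhibitors raise luminescence so EC50 is for signal enhancement.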 It counts as functional.
In test [2] the target is T1, Bcl-2-related protein A1 (Mus musculus, UniProt Q07440).
T1 sequence (Q07440 whole entry): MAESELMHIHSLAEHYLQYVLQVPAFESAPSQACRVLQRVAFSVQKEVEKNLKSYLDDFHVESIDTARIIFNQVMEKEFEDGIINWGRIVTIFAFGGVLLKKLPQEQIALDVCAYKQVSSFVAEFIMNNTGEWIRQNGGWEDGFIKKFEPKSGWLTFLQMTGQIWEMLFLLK
Description: small-molecule antagonists of Bfl-1/BH3 interaction – biochemical, TR-FRET, mouse Bfl-1, confirmation (AID 621). (In TR-FRET formats the signal depends on donor and acceptor labels being close together.)

Test [3] concerns the target T1, Bcl-2-related protein A1. Description: Bfl-1 binding inhibitors, SAR follow-up, biochemical, fluorescence polarization (AID 1070). (In general: Fluorescence polarisation rises when a labelled molecule tumbles more slowly, as on binding a larger partner.)
The target in test [4] is Glyceraldehyde-3-phosphate dehydrogenase (Homo sapiens, UniProt P04406).
Test [5] in a line: Luminescence Cell-Based Dose Confirmation HTS to Identify Inhibitors of Platelet Dense Granule Release. [Related pubchem assays: 1663 (Primary HTS), 1678 (Summary of Project)]. It counts as functional.
The target of test [6] is Beta Lactamase (Pseudomonas aeruginosa, UniProt Q932Y6). Description: BLA reporter interference, concentration series – BLA reporter cells, FRET fluorescence, artefact control for NOD2-RIPK2 interaction inhibitor project, dose response (AID 651552). The class given is functional, cell-based.
In test [7] the target is T2, Heat shock factor protein 1 (Mus musculus, UniProt P38532).
T2 sequence (P38532 whole entry): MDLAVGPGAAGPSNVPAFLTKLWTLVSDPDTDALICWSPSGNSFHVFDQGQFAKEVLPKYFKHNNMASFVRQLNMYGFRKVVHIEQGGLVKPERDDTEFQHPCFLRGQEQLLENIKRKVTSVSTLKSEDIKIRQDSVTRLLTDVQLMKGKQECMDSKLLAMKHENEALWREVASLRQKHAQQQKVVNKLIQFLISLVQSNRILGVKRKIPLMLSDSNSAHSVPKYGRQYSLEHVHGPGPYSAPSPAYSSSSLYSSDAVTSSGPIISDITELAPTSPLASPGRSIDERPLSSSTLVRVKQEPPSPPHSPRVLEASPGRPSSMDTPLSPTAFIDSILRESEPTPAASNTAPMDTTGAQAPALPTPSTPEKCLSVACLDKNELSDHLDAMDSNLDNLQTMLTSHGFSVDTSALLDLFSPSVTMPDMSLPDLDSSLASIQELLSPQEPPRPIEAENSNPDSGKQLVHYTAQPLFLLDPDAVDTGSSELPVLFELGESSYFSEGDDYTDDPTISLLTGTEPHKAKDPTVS
Briefly: enhancement of HSF1-driven luciferase signal – cell-based, NIH3T3, luminescence, dose retest, confirmation (AID 435004).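 Also: stress induced by proteasome inhibitor MG132 added 30 min after compound; luciferase reporter driven by HSF1 response element in NIH3T3 cells; actives raise luminescence as potentiators of the MG132 stress response.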 The class given is functional.

In test [8] the target is Beta-galactosidase (Escherichia coli, UniProt Q8VNN2). Briefly: detection-enzyme interference by beta-gal modulators – biochemical, E. coli enzyme, set 3, artefact control for CCR6 antagonist project, dose response (AID 504712). It counts as functional.
Test [9] deals with Luciferin 4-monooxygenase (Photinus pyralis, UniProt P08659). Briefly: inhibition of purified Photinus pyralis luciferase – biochemical, luminescence, dose response (AID 1891).
Test [10] in a line: Fluorescence Cell-Based Dose Response to Identify Inhibitors of Thrombin Receptor-Activating Peptide SFLLRN-Mediated P-Selectin Induction on Platelets. [Related pubchem assays: 1663 (Primary HTS), 1889 (retest at dose ), 1891 (counterscreen), 1678 (Project Summary)]. The class given is functional. Background: Counterscreens check selectivity or assay interference.
Test [11] is described as follows: Fluorescence-based cell-based high throughput dose response assay for inhibitors of the interaction of nucleotide-binding oligomerization domain containing 2 (NOD2) and the receptor-interacting serine-threonine kinase 2 (RIPK2). The class given is functional. The note with it: Homo sapiens.
The target of test [12] is Ubiquitin carboxyl-terminal hydrolase BAP1 (Homo sapiens, UniProt Q92560). Description: inhibition of BAP1 ubiquitin hydrolase activity – biochemical, dose response (AID 714). The class given is functional.
A short description of test [13]: Luminescence Cell-Based Dose Confirmation to Identify Activators of 5'UTR Stem-Loop Driven Alpha-Synuclein mRNA Translation in H4 Neuroglioblastoma Cells. [Related pubchem assays: 1829 (Project Summary), 1814 (Primary HTS)]. It counts as functional.
A short description of test [14]: Luminescence Cell-Based Dose Confirmation HTS to Identify Activators of 5'UTR Stem-Loop Driven Alpha-Synuclein mRNA Translation in H4 Neuroglioblastoma Cells. [Related pubchem assays: 1829 (Project Summary), 1814 (Primary HTS)]. The class given is functional.
The test system of test [15] is H4. Briefly: Luminescence Cell-Based Dose Response HTS to Identify Activators of 5'UTR Stem-Loop Driven Prion Protein mRNA Translation in H4 Neuroglioblastoma Cells. [Related pubchem assays: 1829 (Project Summary), 1814 (Primary HTS)]. The class given is functional. The note with it: Homo sapiens.
A short description of test [16]: Luminescence Cell-Based Dose Response to Identify Activators of 5'UTR Stem-Loop Driven Prion Protein mRNA Translation in H4-C Neuroglioblastoma Cells. [Related pubchem assays: 1829 (Project Summary), 1814 (Primary HTS)]. The class given is functional.
Test [17] is described as follows: Luminescence Cell-Based Dose Response to Identify Activators of Luciferase Translation or Activity in H4-C Neuroglioblastoma Cells. [Related pubchem assays: 1829 (Project Summary), 1814 (Primary HTS)]. It counts as functional.
Test [18] in a line: NIH3T3 cell viability loss – ATP luminescence, mouse fibroblasts, counter-screen, dose response (AID 2010).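 Also: cells exposed to compound for about 90 hours before reading.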 The class given is functional, cell-based.
For test [19], the system named is Streptococcus. Description: GAS UMAA2166 growth inhibition – luminescence, BacTiterGlo, counter-screen for streptokinase expression inhibitor project, dose response (AID 1915).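 Also: potency for reduction of bacterial viability or growth.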 The class given is functional, organism-based.
Test [20] relates to Vero. Briefly: mammalian cell viability reduction – secondary assay, cytotoxicity control for West Nile virus antiviral project, dose response (AID 1650). The class given is functional. The note with it: Chlorocebus sabaeus.
For test [21], the system named is Streptococcus sp. 'group A'. Briefly: Streptococcus pyogenes SK(-)GAS viability under kanamycin – luminescence, BacTiterGlo, confirmation, counter-screen for streptokinase expression inhibitor project, dose response (AID 1900). The class given is functional, organism-based.
For test [22], the target named is T3, Streptokinase A (Streptococcus pyogenes serotype M1, UniProt P10520).
T3 sequence (P10520 whole entry): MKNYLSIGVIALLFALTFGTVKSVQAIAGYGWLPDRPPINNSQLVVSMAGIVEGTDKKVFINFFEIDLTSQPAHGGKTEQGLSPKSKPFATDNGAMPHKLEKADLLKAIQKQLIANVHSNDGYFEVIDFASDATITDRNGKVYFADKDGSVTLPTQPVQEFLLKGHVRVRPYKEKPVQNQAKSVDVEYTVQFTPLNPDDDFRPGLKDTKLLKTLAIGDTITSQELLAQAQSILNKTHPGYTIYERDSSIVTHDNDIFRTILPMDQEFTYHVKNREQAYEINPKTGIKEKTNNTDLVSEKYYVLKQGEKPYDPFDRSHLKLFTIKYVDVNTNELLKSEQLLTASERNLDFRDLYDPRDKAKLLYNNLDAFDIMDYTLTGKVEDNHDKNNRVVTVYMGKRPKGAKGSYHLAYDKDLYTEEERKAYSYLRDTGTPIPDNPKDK
Description: viability-normalized secreted streptokinase activity reduction – plasminogen activation absorbance, OD405, dose response (AID 1914).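 Also: secreted streptokinase activity via plasminogen activation per viability signal from cell pellet.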 The class given is functional, Streptococcus pyogenes M1 GAS.

A short description of test [23]: Trypanosoma cruzi growth suppression in host cells – NIH3T3 host cells, beta-gal luminescence, confirmation (AID 2044).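 Also: intracellular parasites grown in NIH/3T3 mouse fibroblasts as host cells; luminescent beta-galactosidase reporter signal from transgenic T. cruzi replicating inside host cells; inhibitors lower the luminescence signal.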 The class given is functional, cell-based.
Test [24] has as its target Aryl hydrocarbon receptor (Homo sapiens, UniProt P35869). Description: Luminescence-based cell-based high throughput dose response assay for activators of the Aryl Hydrocarbon Receptor (AHR). [Related pubchem assays: 2796 (Primary screen (AHR activators in singlicate)), 2845 (Confirmation screen (AHR activators in triplicate)), 434939 (Counterscreen (PXR activators in triplicate)), 2804 (Summary (AHR activators))]. The class given is ADME.

A short description of test [25]: viability loss in Vero cells – cytotoxicity control for Vif-APOBEC3G degradation inhibitor project, dose response (AID 1117358). It counts as functional. As to conditions: Vero.
Test [26] concerns the target Estrogen receptor beta (Homo sapiens, UniProt Q92731).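 Also: recombinant ER-beta bound to coactivator SRC1 peptide in presence of estradiol agonist; inhibitors block coactivator peptide binding and lower the FRET signal.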
For test [27], the target named is T4, Low molecular weight phosphotyrosine protein phosphatase (Homo sapiens, UniProt P24666).
T4 sequence (P24666 whole entry): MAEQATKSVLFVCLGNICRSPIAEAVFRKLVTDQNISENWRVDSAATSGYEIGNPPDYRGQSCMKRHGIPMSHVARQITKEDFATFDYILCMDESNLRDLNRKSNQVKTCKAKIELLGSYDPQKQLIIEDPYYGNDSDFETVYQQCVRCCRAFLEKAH
Briefly: inhibition of LMPTP-A enzymatic activity – biochemical, OMFP substrate, fluorescence intensity, set 2, dose response (AID 743307). The class given is functional.

Test [28] deals with T4, Low molecular weight phosphotyrosine protein phosphatase. Description: inhibition of human LMPTP enzyme activity – biochemical, absorbance, pNPP substrate, LMPTP-A isoform, set 2, orthogonal assay, dose response (AID 743308). The class given is functional.
For test [29], the target named is Cytochrome P450 2C19 (Homo sapiens, UniProt P33261). Description: qHTS Assay for Inhibitors and Substrates of Cytochrome P450 2C19. [Related pubchem assays: 410 ]. The class given is ADME. As to conditions: read-out: Potency.
For test [30], the target named is Cytochrome P450 2C9 (Homo sapiens, UniProt P11712). As to conditions: Potency.
Sequence of Cytochrome P450 2C9 (P11712 whole entry): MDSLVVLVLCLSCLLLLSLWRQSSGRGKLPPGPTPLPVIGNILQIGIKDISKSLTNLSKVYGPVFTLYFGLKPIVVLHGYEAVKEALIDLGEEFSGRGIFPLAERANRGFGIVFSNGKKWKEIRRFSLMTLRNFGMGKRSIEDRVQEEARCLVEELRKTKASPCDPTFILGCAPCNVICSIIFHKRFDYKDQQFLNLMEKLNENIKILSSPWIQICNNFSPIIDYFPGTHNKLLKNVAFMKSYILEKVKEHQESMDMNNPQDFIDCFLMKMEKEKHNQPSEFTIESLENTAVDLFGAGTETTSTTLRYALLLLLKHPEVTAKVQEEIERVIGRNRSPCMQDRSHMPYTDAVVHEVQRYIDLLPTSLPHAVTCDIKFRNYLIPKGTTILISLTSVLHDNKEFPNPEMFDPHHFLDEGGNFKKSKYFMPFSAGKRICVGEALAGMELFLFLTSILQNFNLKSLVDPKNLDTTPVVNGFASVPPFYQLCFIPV

Sequence of Glyceraldehyde-3-phosphate dehydrogenase (P04406 whole entry): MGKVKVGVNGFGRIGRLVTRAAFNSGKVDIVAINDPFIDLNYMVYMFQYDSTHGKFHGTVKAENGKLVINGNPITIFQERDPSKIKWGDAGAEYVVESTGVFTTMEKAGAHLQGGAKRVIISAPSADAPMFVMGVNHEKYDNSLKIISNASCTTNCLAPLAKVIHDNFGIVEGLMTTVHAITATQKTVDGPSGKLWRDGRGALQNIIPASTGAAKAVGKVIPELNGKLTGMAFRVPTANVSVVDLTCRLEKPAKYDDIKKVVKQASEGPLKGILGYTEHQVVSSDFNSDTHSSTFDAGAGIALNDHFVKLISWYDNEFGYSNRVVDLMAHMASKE
Sequence of Luciferin 4-monooxygenase (P08659 whole entry): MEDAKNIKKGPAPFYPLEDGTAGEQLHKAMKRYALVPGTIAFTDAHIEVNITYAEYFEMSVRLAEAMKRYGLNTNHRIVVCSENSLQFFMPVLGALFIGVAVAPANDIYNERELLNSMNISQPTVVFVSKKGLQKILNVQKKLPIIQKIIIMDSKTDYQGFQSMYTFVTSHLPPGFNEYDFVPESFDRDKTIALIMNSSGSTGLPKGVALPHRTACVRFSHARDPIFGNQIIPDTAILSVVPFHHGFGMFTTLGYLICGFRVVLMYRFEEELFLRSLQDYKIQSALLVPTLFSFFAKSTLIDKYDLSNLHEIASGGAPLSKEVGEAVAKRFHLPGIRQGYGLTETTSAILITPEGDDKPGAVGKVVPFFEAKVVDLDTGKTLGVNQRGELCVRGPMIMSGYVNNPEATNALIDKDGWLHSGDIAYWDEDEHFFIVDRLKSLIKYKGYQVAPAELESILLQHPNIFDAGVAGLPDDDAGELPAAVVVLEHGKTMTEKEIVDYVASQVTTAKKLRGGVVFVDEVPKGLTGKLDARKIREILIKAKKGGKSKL
Sequence of Cytochrome P450 2C19 (P33261 whole entry): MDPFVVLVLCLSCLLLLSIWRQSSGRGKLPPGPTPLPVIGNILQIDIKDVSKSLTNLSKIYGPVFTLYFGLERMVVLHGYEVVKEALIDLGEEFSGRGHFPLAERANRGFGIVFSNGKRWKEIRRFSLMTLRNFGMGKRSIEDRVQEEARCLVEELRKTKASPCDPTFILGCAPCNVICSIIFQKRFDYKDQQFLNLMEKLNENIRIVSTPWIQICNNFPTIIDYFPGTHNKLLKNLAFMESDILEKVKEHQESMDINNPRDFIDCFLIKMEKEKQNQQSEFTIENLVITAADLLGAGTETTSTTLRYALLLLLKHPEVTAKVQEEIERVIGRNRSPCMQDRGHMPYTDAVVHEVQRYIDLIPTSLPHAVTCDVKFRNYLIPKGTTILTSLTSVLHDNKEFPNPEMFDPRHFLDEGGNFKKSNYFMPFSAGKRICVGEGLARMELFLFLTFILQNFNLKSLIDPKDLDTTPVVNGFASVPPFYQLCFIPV
Sequence of Estrogen receptor beta (Q92731 whole entry): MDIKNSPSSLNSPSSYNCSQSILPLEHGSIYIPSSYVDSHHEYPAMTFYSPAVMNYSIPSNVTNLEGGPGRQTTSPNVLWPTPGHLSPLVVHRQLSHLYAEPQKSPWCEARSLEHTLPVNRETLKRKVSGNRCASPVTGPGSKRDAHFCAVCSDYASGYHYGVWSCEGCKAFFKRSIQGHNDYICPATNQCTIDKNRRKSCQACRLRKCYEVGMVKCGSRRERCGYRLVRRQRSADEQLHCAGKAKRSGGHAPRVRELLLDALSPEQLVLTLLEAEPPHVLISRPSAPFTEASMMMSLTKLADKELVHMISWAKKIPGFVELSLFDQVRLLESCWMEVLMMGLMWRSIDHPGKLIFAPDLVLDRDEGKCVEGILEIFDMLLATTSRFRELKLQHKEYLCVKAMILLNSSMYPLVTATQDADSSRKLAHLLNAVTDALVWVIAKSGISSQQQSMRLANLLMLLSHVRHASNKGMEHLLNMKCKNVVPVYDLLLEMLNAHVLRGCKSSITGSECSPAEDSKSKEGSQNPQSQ
Sequence of Ubiquitin carboxyl-terminal hydrolase BAP1 (Q92560 whole entry): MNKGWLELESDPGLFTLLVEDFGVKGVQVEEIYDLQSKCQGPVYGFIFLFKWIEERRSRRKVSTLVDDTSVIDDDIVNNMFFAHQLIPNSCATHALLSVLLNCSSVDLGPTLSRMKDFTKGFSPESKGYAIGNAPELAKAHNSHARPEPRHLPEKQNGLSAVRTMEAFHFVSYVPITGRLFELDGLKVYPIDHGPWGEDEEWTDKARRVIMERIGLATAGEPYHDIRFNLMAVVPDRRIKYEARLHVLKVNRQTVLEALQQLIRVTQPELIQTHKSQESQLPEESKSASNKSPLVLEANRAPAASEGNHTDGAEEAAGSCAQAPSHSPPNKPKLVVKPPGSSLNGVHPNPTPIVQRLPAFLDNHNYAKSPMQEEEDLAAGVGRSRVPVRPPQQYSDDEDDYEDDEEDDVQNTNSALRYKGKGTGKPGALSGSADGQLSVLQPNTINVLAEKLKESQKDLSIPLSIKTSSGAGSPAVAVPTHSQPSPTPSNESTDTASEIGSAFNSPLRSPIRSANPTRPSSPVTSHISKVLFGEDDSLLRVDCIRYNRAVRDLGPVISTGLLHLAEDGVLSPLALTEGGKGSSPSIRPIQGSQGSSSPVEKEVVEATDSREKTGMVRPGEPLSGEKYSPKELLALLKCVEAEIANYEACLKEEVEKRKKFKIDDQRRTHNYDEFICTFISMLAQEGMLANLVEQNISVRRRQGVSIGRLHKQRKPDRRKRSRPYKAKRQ
Sequence of Aryl hydrocarbon receptor (P35869 whole entry): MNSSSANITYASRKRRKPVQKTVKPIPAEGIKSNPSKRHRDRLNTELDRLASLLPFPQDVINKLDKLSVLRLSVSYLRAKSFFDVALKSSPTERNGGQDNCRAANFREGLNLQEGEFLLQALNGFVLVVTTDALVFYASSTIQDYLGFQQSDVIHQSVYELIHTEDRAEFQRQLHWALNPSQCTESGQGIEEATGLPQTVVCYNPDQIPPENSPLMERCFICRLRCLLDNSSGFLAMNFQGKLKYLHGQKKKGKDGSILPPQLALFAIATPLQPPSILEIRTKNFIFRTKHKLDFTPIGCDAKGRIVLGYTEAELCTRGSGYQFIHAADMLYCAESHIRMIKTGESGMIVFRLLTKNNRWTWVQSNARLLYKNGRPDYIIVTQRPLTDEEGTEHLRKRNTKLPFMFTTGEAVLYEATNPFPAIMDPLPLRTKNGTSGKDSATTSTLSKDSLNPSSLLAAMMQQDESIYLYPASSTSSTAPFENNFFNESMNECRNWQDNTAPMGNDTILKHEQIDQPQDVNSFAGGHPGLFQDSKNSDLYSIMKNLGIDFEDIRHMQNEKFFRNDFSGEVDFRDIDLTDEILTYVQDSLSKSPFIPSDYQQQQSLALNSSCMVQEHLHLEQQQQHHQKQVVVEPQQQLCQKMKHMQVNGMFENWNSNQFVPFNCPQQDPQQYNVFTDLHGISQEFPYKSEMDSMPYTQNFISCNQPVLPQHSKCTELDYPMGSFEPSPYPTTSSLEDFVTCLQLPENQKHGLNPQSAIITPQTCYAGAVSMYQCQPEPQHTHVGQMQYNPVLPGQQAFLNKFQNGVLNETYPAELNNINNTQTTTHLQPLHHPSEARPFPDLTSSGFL
Sequence of E3 ubiquitin-protein ligase Mdm2 (Q00987 whole entry): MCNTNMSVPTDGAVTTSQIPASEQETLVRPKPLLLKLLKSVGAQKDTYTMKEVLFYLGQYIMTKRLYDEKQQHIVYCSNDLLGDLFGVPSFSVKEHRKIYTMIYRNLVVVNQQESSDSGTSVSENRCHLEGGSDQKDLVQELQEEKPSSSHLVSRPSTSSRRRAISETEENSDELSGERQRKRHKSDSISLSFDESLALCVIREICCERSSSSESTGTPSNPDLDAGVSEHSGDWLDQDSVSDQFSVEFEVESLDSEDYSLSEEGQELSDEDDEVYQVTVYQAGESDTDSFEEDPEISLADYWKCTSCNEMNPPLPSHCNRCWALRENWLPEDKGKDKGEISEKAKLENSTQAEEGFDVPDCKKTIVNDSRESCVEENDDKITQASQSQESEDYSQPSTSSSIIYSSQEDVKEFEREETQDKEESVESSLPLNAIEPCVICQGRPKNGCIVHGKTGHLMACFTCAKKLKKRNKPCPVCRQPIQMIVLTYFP
Sequence of Beta Lactamase (Q932Y6 whole entry): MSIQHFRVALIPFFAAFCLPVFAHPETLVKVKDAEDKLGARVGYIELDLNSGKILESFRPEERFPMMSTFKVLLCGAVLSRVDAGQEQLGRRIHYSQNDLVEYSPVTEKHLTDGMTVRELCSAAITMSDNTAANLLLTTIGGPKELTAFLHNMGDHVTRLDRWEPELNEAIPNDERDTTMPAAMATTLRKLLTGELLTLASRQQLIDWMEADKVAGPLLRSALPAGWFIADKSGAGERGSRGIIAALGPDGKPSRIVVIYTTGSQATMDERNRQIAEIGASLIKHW

As a reminder, the EC50 is the concentration giving half of the maximal effect. With `COc1ccc(C(=O)NCCSC2CCCCC2)cc1`, the EC50 in test [1] is listed as 13.6 µM (not active).

As a reminder, the IC50 is the midpoint of a concentration-inhibition curve. Turning to `O=C1C(Cl)=C(N2CCN(c3cccc(C(F)(F)F)c3)CC2)C(=O)N1c1ccc(Cl)c(Cl)c1`, the IC50 in [2], in test [3] and in test [4] was > 100 µM (not active) throughout.

As for `Cc1ccc(NN2C(=O)C=C(c3ccccc3)C2=O)cc1`, the EC50 in test [5] is 5.06 µM (active); in test [7] it was 10.5 µM (active); in test [9] it was > 112 µM (not active); in test [10], < 30 µM (active). In addition, the IC50 is 28.7 µM (inactive) in [6], > 66.6 µM (inactive) in test [8] and 1.72 µM (active) in [11].

`Nc1nn(S(=O)(=O)c2cccc3nsnc23)cc1-c1ccc(Br)cc1`: the IC50 in test [12] is recorded as > 50 µM (not active).

As to `CCc1cc2c(=O)n3c(nc2s1)-c1[nH]c2ccc(OC)cc2c1CC3`, the EC50 is 0.498 µM (active) in test [13]; < 0.1 µM (active) in test [14]; 3.18 µM (active) in test [15]; > 12 µM (not active) in test [16]; 0.354 µM (active) in [17].

The term CC50 denotes the concentration that lowers cell viability or growth by half. `O=C(Nc1ccc(OC(F)(F)F)cc1)N1CCN(c2ccnc3cc(Cl)ccc23)CC1`: the concentration giving a half-maximal response (EC50) in test [18] is 14.4 µM (active); in test [19], > 150 µM (not active); in test [21], 9.61 µM (active); in test [22], 12.7 µM (active); in [23], 2.06 µM (active). Also, in test [20], the CC50 is 2.95 µM (active).

In the case of `Cc1ccc(-c2cc(-c3cccs3)[nH]n2)c(O)c1`, the EC50 in test [24] is 1.21 µM (active).

In the case of `O=C(Nc1nnc(C2CC2)o1)c1ccc(S(=O)(=O)N2CCCc3ccccc32)cc1`, the EC50 in test [18] is 5.11 µM (active); in [19], 4 µM (active); in test [21], 2.46 µM (active); in test [23], 1.4 µM (active). The CC50 in test [25] is 15.1 µM (active).

On to `CC(C)COC(=O)c1nnsc1NC(=O)Nc1ccccc1`, for which the IC50 in test [26] is on record as > 50 µM (not active).

In the case of `CCCCNc1nc(-c2ccccc2)nc2ccccc12`, the IC50 was 23.2 µM (inactive) in [27] and > 80 µM (inactive) in test [28].

As to `COc1ccc(C(=O)[C@H]2[C@H]3[C@@H](C(=O)[C@@H]4OC[C@H]3O4)[C@H]3C=Cc4ccccc4N32)c(OC)c1`, the AC50 in [29] and in [30] was 31.6 µM (inconclusive) throughout.
